Results published in patent publication US9326986B2, “Quinazolinone, quinolone and related analogs as sirtuin modulators” (GLAXOSMITHKLINE LLC, priority 2008, dated 2016).

What follows are molecules tested against T1, SIRT1 (Homo sapiens, UniProt Q96EB6) (assay: Mass spectrometry based assay to identify modulators of SIRT1 activity (deacetylation of p53-based acetylated peptide)). Conditions: 10 nM SIRT1, 0.5 μM peptide substrate, 120 μM βNAD+, 25 minutes at 25° C.
T1 sequence (Q96EB6 1-747): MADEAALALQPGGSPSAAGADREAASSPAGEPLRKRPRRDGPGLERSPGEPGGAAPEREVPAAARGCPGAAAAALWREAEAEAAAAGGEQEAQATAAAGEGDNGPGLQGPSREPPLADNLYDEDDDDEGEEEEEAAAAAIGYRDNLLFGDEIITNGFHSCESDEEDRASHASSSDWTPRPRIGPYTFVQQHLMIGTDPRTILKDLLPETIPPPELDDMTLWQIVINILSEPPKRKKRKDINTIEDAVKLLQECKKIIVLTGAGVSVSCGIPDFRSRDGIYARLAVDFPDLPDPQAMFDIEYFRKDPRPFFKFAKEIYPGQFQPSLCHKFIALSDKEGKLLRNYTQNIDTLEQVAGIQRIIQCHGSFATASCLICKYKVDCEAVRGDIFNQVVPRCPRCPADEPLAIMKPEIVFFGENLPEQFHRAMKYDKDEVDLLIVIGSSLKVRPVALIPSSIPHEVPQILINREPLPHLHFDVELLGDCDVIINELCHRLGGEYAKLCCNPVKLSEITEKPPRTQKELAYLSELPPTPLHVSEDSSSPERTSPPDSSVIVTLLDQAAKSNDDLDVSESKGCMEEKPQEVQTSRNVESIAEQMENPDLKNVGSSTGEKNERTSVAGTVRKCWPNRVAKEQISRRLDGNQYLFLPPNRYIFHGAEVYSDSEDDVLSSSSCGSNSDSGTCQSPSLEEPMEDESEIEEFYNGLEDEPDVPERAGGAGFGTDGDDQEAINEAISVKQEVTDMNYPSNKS
Assay type: biochemical

% Fold Act. (percent maximum fold activation)	SMILES
A (Fold activation>200%)	O=C(Nc1ccccn1)c1cccc2c(=O)[nH]c(-c3cccc(C(F)(F)F)c3)nc12 [Compound 218]
A (Fold activation>200%)	Cn1c(-c2cccc(C(F)(F)F)c2)nc2c(C(=O)Nc3ncc(CN4CCCC4)s3)cccc2c1=O [Compound 358]
A (Fold activation>200%)	O=C(Nc1nccs1)c1cccc2c(=O)cc(-c3ccccc3OC(F)(F)F)[nH]c12 [Compound 430]
B (Fold Activation<200%)	O=C(Nc1cnccn1)c1cccc2c(=O)cc(-c3cccc(Cl)c3)[nH]c12 [Compound 434]
B (Fold Activation<200%)	Cn1c(-c2cccc(C#N)c2)nc2c(C(=O)Nc3ccccn3)cccc2c1=O [Compound 253]
A (Fold activation>200%)	COc1cc(OC)nc(C(=O)Nc2cccc3c(=O)cc(-c4cccc(C(F)(F)F)c4)[nH]c23)n1 [Compound 423]
A (Fold activation>200%)	CCn1c(-c2cccc(C(F)(F)F)c2)nc2c(NC(=O)c3cnccn3)cccc2c1=O [Compound 232]
A (Fold activation>200%)	Cn1c(-c2cccc(C(F)(F)F)c2)nc2c(NC(=O)c3cccnc3)cccc2c1=O [Compound 240]
A (Fold activation>200%)	Cn1c(-c2cccc(C(F)(F)F)c2)nc2c(C(=O)Nc3nc(CN4CCCC4)cs3)cccc2c1=O [Compound 357]
A (Fold activation>200%)	Cn1c(-c2cccc(C(F)(F)F)c2)nc2c(C(=O)Nc3ccnc(CN4CCCC4)n3)cccc2c1=O [Compound 359]
A (Fold activation>200%)	Cn1c(-c2cccc(C(F)(F)F)c2)nc2c(NC(=O)c3cccc(N4CCOCC4)n3)cccc2c1=O [Compound 341]
A (Fold activation>200%)	Cn1c(-c2cccc(C(F)(F)F)c2)nc2c(NC(=O)c3ccncn3)cccc2c1=O [Compound 245]
A (Fold activation>200%)	CC(C)Cn1c(-c2cccc(C(F)(F)F)c2)nc2c(NC(=O)c3cnccn3)cccc2c1=O [Compound 234]
A (Fold activation>200%)	Cn1c(-c2cccc(C(F)(F)F)c2)nc2c(C(=O)Nc3nc(CN4CCNCC4)cs3)cccc2c1=O [Compound 366]
A (Fold activation>200%)	O=C(Nc1nccs1)c1cccc2c(=O)cc(-c3ccccc3C(F)(F)F)[nH]c12 [Compound 427]
A (Fold activation>200%)	Cc1cc(NC(=O)c2cccc3c(=O)cc(-c4cccc(C(F)(F)F)c4)[nH]c23)n(C)n1 [Compound 407]
B (Fold Activation<200%)	CCn1c(-c2cccc(C(F)(F)F)c2)nc2c(C(=O)Nc3ccccn3)cccc2c1=O [Compound 269]
B (Fold Activation<200%)	O=C(Nc1ccccn1)c1cccc2c(=O)n(CCN3CCCC3)c(-c3cccc(C(F)(F)F)c3)nc12 [Compound 272]
A (Fold activation>200%)	O=C(Nc1ccccn1)c1cccc2c(=O)[nH]c(-c3ccccc3OC(F)(F)F)nc12 [Compound 320]

Same assay, conditions: SIRT1 activation; 10 nM SIRT1, 0.5 μM peptide substrate, 120 μM βNAD+, 25 minutes at 25° C.

EC1.5 μM	SMILES
A (EC1.5<1.0 μM)	O=C(Nc1ccccn1)c1cccc2c(=O)[nH]c(-c3cccc(C(F)(F)F)c3)nc12 [Compound 218]
B (EC1.5 1-25 μM)	Cn1c(-c2cccc(C(F)(F)F)c2)nc2c(C(=O)Nc3ncc(CN4CCCC4)s3)cccc2c1=O [Compound 358]
A (EC1.5<1.0 μM)	O=C(Nc1nccs1)c1cccc2c(=O)cc(-c3ccccc3OC(F)(F)F)[nH]c12 [Compound 430]
A (EC1.5<1.0 μM)	O=C(Nc1cnccn1)c1cccc2c(=O)cc(-c3cccc(Cl)c3)[nH]c12 [Compound 434]
C (EC1.5>25 μM)	Cn1c(-c2cccc(C#N)c2)nc2c(C(=O)Nc3ccccn3)cccc2c1=O [Compound 253]
A (EC1.5<1.0 μM)	COc1cc(OC)nc(C(=O)Nc2cccc3c(=O)cc(-c4cccc(C(F)(F)F)c4)[nH]c23)n1 [Compound 423]
A (EC1.5<1.0 μM)	CCn1c(-c2cccc(C(F)(F)F)c2)nc2c(NC(=O)c3cnccn3)cccc2c1=O [Compound 232]
B (EC1.5 1-25 μM)	Cn1c(-c2cccc(C(F)(F)F)c2)nc2c(NC(=O)c3cccnc3)cccc2c1=O [Compound 240]
A (EC1.5<1.0 μM)	Cn1c(-c2cccc(C(F)(F)F)c2)nc2c(C(=O)Nc3nc(CN4CCCC4)cs3)cccc2c1=O [Compound 357]
B (EC1.5 1-25 μM)	Cn1c(-c2cccc(C(F)(F)F)c2)nc2c(C(=O)Nc3ccnc(CN4CCCC4)n3)cccc2c1=O [Compound 359]
A (EC1.5<1.0 μM)	Cn1c(-c2cccc(C(F)(F)F)c2)nc2c(NC(=O)c3cccc(N4CCOCC4)n3)cccc2c1=O [Compound 341]
A (EC1.5<1.0 μM)	Cn1c(-c2cccc(C(F)(F)F)c2)nc2c(NC(=O)c3ccncn3)cccc2c1=O [Compound 245]
A (EC1.5<1.0 μM)	CC(C)Cn1c(-c2cccc(C(F)(F)F)c2)nc2c(NC(=O)c3cnccn3)cccc2c1=O [Compound 234]
A (EC1.5<1.0 μM)	Cn1c(-c2cccc(C(F)(F)F)c2)nc2c(C(=O)Nc3nc(CN4CCNCC4)cs3)cccc2c1=O [Compound 366]
A (EC1.5<1.0 μM)	O=C(Nc1nccs1)c1cccc2c(=O)cc(-c3ccccc3C(F)(F)F)[nH]c12 [Compound 427]
A (EC1.5<1.0 μM)	Cc1cc(NC(=O)c2cccc3c(=O)cc(-c4cccc(C(F)(F)F)c4)[nH]c23)n(C)n1 [Compound 407]
B (EC1.5 1-25 μM)	CCn1c(-c2cccc(C(F)(F)F)c2)nc2c(C(=O)Nc3ccccn3)cccc2c1=O [Compound 269]
B (EC1.5 1-25 μM)	O=C(Nc1ccccn1)c1cccc2c(=O)n(CCN3CCCC3)c(-c3cccc(C(F)(F)F)c3)nc12 [Compound 272]
A (EC1.5<1.0 μM)	O=C(Nc1ccccn1)c1cccc2c(=O)[nH]c(-c3ccccc3OC(F)(F)F)nc12 [Compound 320]
